Experimental findings from patent publication US11226337B2, “Chemoproteomic profiling of protein electrophilic and oxidative post-translational modifications” (Zenagem, LLC, priority 2017, dated 2022) are described below.

Assay [1] addresses T1, PLOD3 Procollagenlysine, 2oxoglutarate (O60568) (Homo sapiens, UniProt O60568).
T1 construct: In Situ Labelling of Cells with Hydrazine Probes for MS Experiments; endogenous in cells; host or cells: HEK293T and MDA-MB-231
T1 sequence (O60568 25-738): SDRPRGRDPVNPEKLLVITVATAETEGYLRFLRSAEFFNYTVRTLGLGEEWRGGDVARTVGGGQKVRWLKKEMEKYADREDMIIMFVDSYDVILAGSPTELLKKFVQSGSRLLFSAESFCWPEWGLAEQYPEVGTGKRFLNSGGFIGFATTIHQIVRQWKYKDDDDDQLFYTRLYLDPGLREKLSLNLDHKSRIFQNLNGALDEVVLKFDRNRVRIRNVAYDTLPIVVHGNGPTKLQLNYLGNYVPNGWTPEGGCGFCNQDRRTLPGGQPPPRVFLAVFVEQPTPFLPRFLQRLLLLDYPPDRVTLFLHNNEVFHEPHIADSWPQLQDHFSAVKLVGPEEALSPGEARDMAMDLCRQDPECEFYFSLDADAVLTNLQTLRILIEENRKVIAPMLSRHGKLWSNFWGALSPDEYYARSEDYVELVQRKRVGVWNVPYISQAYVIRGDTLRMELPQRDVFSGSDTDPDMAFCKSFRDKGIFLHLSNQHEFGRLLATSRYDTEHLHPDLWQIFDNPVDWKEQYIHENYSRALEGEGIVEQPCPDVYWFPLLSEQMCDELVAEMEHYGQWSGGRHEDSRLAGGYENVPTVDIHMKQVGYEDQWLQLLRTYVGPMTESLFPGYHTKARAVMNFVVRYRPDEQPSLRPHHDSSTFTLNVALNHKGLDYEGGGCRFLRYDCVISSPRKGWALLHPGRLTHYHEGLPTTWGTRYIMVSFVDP
As to the kind of experiment: SILAC RP-ABPP. Type of assay: cell-based. Particulars: SILAC H/L. How it is done: (§1) For MS-based experiments, labelling was performed in a similar manner as described above in Example 2, maintaining the same concentrations of probes. Modifications to this protocol included using isotopically ‘light’ and ‘heavy’ SILAC cells that were also grown to near complete confluence prior to treatment. Isotopically light cells were treated with the non-clickable hydrazine probe (at the same concentration as the probe in ‘enrichment’ experiments) or the probe in the presence of 10-fold excess non-clickable hydrazine probe as a competitor (in ‘competition’ experiments). Isotopically heavy cells were treated with the probe for both types of experiments. These treatments were performed in non-SILAC media. Following treatments, cells were washed with cold PBS to remove the probe-containing media, harvested by scraping, collected by centrifugation (1,400 g, 3 min, 4° C.), washed again by resuspension in cold PBS and frozen as pellets at −80° C. until use.
(§2) The fractionated equimolar mixture of heavy and light soluble proteomes (1-1.5 mg) was diluted to 1 mL in PBS. Click reactions were scaled accordingly (except for biotin-azide) to maintain final concentrations of 0.1 mM TBTA, 1 mM CuSO4, 100 μM biotin-azide (10 mM in DMSO) and 1 mM TCEP. The mixture was vortexed and placed on a rotator at ambient temperature for 1 hour. Sequential addition of and mixture with pre-chilled methanol (MeOH, 2 mL), chloroform (CHCl3, 0.5 mL) and PBS (1 mL) on ice quenched the reaction. The precipitated proteome was centrifuged (5,000 g, 10 min, 4° C.) to fractionate the protein interphase from the organic and aqueous solvent layers. The protein pellet was washed with cold 1:1 MeOH:CHCl3 (3×1 mL), mildly sonicated in cold 4:1 MeOH:CHCl3 (2.5 mL) and pelleted once more by centrifugation (5,000 g, 10 min, 4° C.) to ensure click reagents were efficiently removed.
(§3) Heavy and light parent ion chromatograms associated with successfully identified peptides were extracted and compared using CIMAGE software as previously described^69. At least one ion of a co-eluting heavy-light pair must be accurately identified from a fragmentation event that occurred within the retention time window (±10 min) of parent ion elution. To ensure that the correct pair of peaks is quantified, chromatograms are extracted within a 10 ppm error tolerance of the predicted m/z, the signal-to-noise ratio must be >2.5 and the ‘co-elution correlation score’ and ‘envelope correlation score’ must have R^2 values ≥0.8. In addition, peptides detected as ‘singletons,’ where only the heavy ion of a peptide pair was identified, but for which passed all other filtering parameters, are given a default assigned ratio of ‘20,’ which is defined as any measured ratio that is ≥20.
(§4) To further eliminate false positives and any stochastic variability in the data, protein ratios were then determined by the median peptide ratio derived from three or more unique quantified peptides. Protein ratios that complied with these criteria from a single experiment were then averaged with ratios acquired from ≥3 replicates to provide final values for each type of experiment in both cell lines with both probes. […] Most importantly, there are no robustly measured ratios for proteins identified as probe 1 targets that had measured ratios of ˜1 with probe 2. Probe targets in HEK293T and MDA-MB-231 cells represent data combined from ≥3 independent biological replicates with each cell type performed with several independent batches of synthesized probes over a period of almost two years. […]

Assay [2] addresses T2, GLB1 Betagalactosidase (P16278) (Homo sapiens, UniProt P16278).
T2 construct: shared by both the endogenous and recombinant forms of these proteins; endogenous in cells; host or cells: HEK293T and MDA-MB-231
T2 sequence (P16278 29-677): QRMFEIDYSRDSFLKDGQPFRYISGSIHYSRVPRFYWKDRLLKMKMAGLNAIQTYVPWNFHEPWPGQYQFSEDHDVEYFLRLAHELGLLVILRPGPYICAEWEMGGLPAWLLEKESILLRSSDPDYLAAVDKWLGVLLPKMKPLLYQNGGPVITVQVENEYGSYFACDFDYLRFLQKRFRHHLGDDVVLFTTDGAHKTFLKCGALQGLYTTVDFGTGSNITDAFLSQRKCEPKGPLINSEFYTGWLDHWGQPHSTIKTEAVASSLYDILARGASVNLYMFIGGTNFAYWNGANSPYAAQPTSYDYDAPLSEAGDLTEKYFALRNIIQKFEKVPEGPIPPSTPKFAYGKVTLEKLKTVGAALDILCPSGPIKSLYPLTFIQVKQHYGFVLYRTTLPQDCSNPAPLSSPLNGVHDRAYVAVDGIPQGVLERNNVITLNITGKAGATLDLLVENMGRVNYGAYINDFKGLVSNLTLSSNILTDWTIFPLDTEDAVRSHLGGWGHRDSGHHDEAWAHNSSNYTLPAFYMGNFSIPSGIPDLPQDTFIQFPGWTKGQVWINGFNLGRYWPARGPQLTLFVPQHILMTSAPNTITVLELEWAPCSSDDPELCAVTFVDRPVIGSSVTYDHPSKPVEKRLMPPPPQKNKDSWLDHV
Nature of the assay: SILAC RP-ABPP. Type of assay: cell-based. Particulars: SILAC H/L. How it is done:
as §1, §2, §3, §4

Take `C#CCNN.Cl` [probe 1, prop-2-yn-1-ylhydrazine hydrochloride]: the enrichment ratioavg in assay [1] (probe 1 3 mM 0.5 h vs probe 3, MDA-MB-231) is recorded as 14; in assay [2] (probe 1 3 mM 0.5 h vs probe 3, HEK293T), 12. For the same compound, the competition ratioavg in assay [1] (probe 1 vs probe 1+10x probe 3, MDA-MB-231) is listed as 2; in assay [2] (probe 1 vs probe 1+10x probe 3, HEK293T) it was 3.
`C#CCCNC(=O)c1ccc(NN)cc1.Cl` [probe 2, N-(but-3-yn-1-yl)-4-hydrazinylbenzamide hydrochloride]: the enrichment ratioavg in assay [1] (probe 2 1 mM 0.5 h vs probe 4, HEK293T) worked out at 20; in assay [2] (probe 2 1 mM 0.5 h vs probe 4, MDA-MB-231) it was 6. The competition ratioavg is given as 6 in assay [1] (probe 2 vs probe 2+10x probe 4, HEK293T) and 2 in assay [2] (probe 2 vs probe 2+10x probe 4, MDA-MB-231).
